According to publication PMC6915728 (Nature Communications, 2019):

Experiments:
bacterial membrane = details: literature mining; ref superscript numbers in the cell, listed in Supplementary Data 7 sheet References; cited from earlier work
Excerpt: Supplement 41467_2019_13618_MOESM10_ESM.xlsx, sheet "AMP details" | column: Pore formation

E. coli BW25113 ΔmlaD = test: MIC, serial broth dilution, mlaD knockout strain vs wild type; format: cell-based, Escherichia coli
Procedure: What could be the mechanism behind the antagonistic action of this pathway on membrane- versus intracellular-targeting AMPs? Since MlaD is part of a protein complex, it may lead to a loss-of-function effect upon overexpression[41],[42]. To test this, we asked whether overexpression and deletion of mlaD cause similar changes in susceptibility to a representative set of membrane- and intracellular-targeting AMPs.
Minimum inhibitory concentrations (MIC) were determined with a standard serial broth dilution technique with a minor modification. Specifically, instead of a two-fold dilution series, smaller AMP concentration steps were used (typically 1.2-fold) for two reasons. […] Second, gene overexpressions caused typically only small changes in the MICs of AMPs and therefore higher resolution was required. The protocol was as follows. From a stock solution of an AMP, 12-steps serial dilution was prepared in fresh MS medium in 96-well microtiter plates. Each AMP was represented in 11 different concentrations (3 wells per AMP concentration per strain). Three wells contained only medium to check the growth in the absence of AMP. After overnight growth in MS medium supplemented with chloramphenicol, bacterial strains were diluted 20-fold into fresh MS medium and grown until the cell density reached OD600 ~1. Cells were induced by 100 µM of IPTG and incubated for 1 h at 30 °C with continuous shaking at 300 rpm. Following incubation, approximately half-million cells were inoculated into the wells of the 96-well microtiter plate with a 96‐pin replicator. We used three independent replicates for each strain and the corresponding control. Two rows in the 96-well plate contained only MS medium in order to obtain the background OD value of the medium. Plates were incubated at 30 °C with continuous shaking at 300 rpm. After 20–24 h of incubation, OD600 values were measured in a microplate reader (Biotek Synergy 2).
A mlaD knockout strain of E. coli BW25113 carrying a kanamycin resistance cassette in the position of the gene was selected from the KEIO collection. The resistance marker was removed using plasmid-borne (pFT-A) expression of FLP recombinase leading to excision of the kanamycin resistance cassette. Cassette excision was verified by a polymerase chain reaction using the primers mlaD_del_ver_Fw (5′- […]) and mlaD_del_ver_Rev (5′- […]).
Supplementary Figure 13. […] The bacterial susceptibility of the mutant to AMPs was tested by MIC determination. Growth is shown relative to growth in the absence of the corresponding AMP. The blue line represents the mlaD knockout strain and the orange line represents the control strain (wild-type E. coli BW25113). Error bars indicate the standard errors based on three biological replicates. Source data are provided in the Source Data file.

[1] = tested on: E. coli BW25113 overexpression strains (ASKA plasmids); test: Minimum inhibitory concentration (MIC), serial broth dilution, single-gene overexpression strains vs empty-vector control; format: cell-based, Escherichia coli; details: for Average relative change in MIC: mlaD overexpression strain relative to control (wild-type+empty vector), 3 replicates each, from optical density values of serial dilution plates, AMP in µg ml-1; for Relative MIC: broth dilution, MS medium, 100 µM IPTG, 30 °C, 20-24 h, OD600, 3 replicates
Procedure, shortened: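 E. coli overexpression strains grown in MS medium with chloramphenicol, induced with 100 µM IPTG for 1 h at 30 °C, then about half-million cells inoculated into 12-step AMP dilutions (typically 1.2-fold steps). OD600 read after 20–24 h at 30 °C with shaking; triplicate strains compared with empty-vector control.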

[2] = tested on: E. coli K12 BW25113 carrying the pooled ASKA overexpression plasmid library (~4400 ORFs); test: Chemical-genetic profiling: pooled competitive growth of the ASKA gene-overexpression library with and without AMP, deep sequencing readout; format: cell-based, Escherichia coli
Excerpt: We generated chemical-genetic interaction profiles for a diverse set of AMPs (Table 1) by screening them against a comprehensive library of gene overexpressions in E. coli[21]. Increasing gene dosage is a widely applied approach to reveal the targets of small-molecule antibiotics[22],[23]. It also informs on the ‘latent resistome’, that is, the collection of genes where a change from native expression level enhances resistance to a particular drug[24]. We applied a sensitive competition assay by monitoring growth of a pooled plasmid library, overexpressing all the E. coli ORFs (Fig. 1a), as we reported earlier. Specifically, E. coli cells carrying the pooled plasmid collection were grown in the presence or absence of one of the 15 AMPs tested, at a sub-inhibitory concentration that increased the doubling time of the whole population by 2-fold. Following 12 generations of growth, the plasmid pool was isolated from each selection and the relative abundance of each plasmid was determined by a deep sequencing readout (see Methods).
We carried out chemical-genetic profiling to determine the impact of the overexpression of each E. coli ORF on bacterial susceptibility to each of the 15 different AMPs. To this end, we used the complete set of E. coli K-12 Open Reading Frame Archive (ASKA) plasmid library (GFP minus) where each E. coli ORF is cloned into a high copy number expression plasmid (pCA24N-ORFGFP(-)). Prior to screening, the ASKA library was grown in the original host strain E. coli K-12 AG1 in 96-well plates (growth conditions: 37 °C, 280 rpm, LB medium). An equal aliquot of each member of the ASKA library (each well of the 96-well plates) was pooled together and the plasmid DNA (pCA24N-ORF-GFP(-)) was isolated and transformed into E. coli K12 BW25113 strain[51]. To obtain a negative control strain not having any overexpressed gene, the plasmid without a cloned ORF (pCA24N-noORF) was also transformed into the same E. coli strain. Then, on the pooled collection, we applied a previously reported competitive growth assay. Specifically, the pooled overexpression library and the control strain were grown in parallel in MS medium supplemented with 20 µg per ml chloramphenicol and the overexpression was induced by 100 µM isopropyl-ß-D-thiogalactopyranoside (IPTG). After 1 h induction, ~5 × 10^5 bacterial cells from the library were inoculated into each well of a 96-well microtiter plate containing a concentration gradient of an AMP in the MS medium supplemented with 20 µg per ml chloramphenicol and 100 µM IPTG. At the same time, both the library and the control strain with the empty plasmid were grown in the absence of any AMPs. We took special care to grow both of these samples in the exact same conditions as the samples in the presence of AMPs. Bacterial growth was monitored in a microplate reader (Biotek Synergy 2) for 24 h. At the end of the exponential growth phase, we selected those wells in which the doubling time of the cell population was increased by 2-fold. Then, from these wells, cells were split into four equal proportion and each was transferred into 20 mL of MS medium supplemented with the corresponding AMP in four different concentrations in the range that slowed down growth by two-fold in the microtitre plate. […] The rationale for this 2-step process was to maintain competition in exponential phase for 12 generations of growth, efficiently control the growth rate in a reproducible manner and obtain the plasmid pool with standard DNA isolation protocol (innuPREP plasmid mini Kit, Analytik Jena AG) in a yield that is enough for the downstream analysis. The cultures were vigorously shaken along the entire protocol to make sure that the cultures are completely homogeneous and therefore biasing interactions between clones (such as trans-resistance) was minimized. […]

[3] = overexpression strain gadW, MIC of overexpression strain / MIC of empty-plasmid control
[4] = overexpression strain lptB, MIC of overexpression strain / MIC of empty-plasmid control
[5] = overexpression strain mlaC, MIC of overexpression strain / MIC of empty-plasmid control
[6] = overexpression strain mlaD, MIC of the overexpression strain / MIC of the control strain (wild-type carrying the empty plasmid)
[7] = overexpression strain murA, MIC of overexpression strain / MIC of empty-plasmid control
[8] = overexpression strain mzrA, MIC of overexpression strain / MIC of empty-plasmid control
[9] = overexpression strain rpoH, MIC of overexpression strain / MIC of empty-plasmid control
[10] = overexpression strain nikB, MIC of overexpression strain / MIC of empty-plasmid control
[11] = gene ptrB, whether the literature phenotype was captured by the overexpression screen (9 out of 13 captured)
[12] = overexpression strain mhpA, MIC of overexpression strain / MIC of empty-plasmid control

Row | Sequence | Pore formation (whether AMP makes pores in the bacterial membrane) (bacterial membrane) | Average relative change in MIC [1] | Relative MIC [1, 3] | Relative MIC [1, 4] | Relative MIC [1, 5] | Relative MIC [1, 6] | Relative MIC [1, 7] | Relative MIC [1, 8] | Relative MIC [1, 9] | Relative MIC [1, 10] | Overexpression phenotype, Chemical-genetic profile [2, 11] | Relative MIC [1, 12] | further results
1 | GIGKFLKKAKKFGKAFVKILKK [PEX, Pexiganan, synthetic Magainin derivative; disrupts cell membrane; cluster C2] | Yes13 | 1.71 | 0.7 | 1.3 | 1.85 | 1.85 | 1.44 | 1 | 1.44 |  |  |  | Average relative change in MIC (E. coli BW25113 ΔmlaD; mlaD deletion strain relative to control (E. coli BW25113), 3 replicates each, from optical density values of serial dilution plates, AMP in µg ml-1): 1.58; Relative MIC ([1]; overexpression strain hyfA, MIC of overexpression strain / MIC of empty-plasmid control): 0.7; Relative MIC ([1]; overexpression strain narY, MIC of overexpression strain / MIC of empty-plasmid control): 0.8
2 | KTKKKFLKKT [PXB, Polymyxin B, from Bacillus polymyxa, purchased from Sigma-Aldrich; disrupts cell membrane; cluster C1] | Yes2 |  | 0.7 | 0.7 |  |  |  | 0.66 |  | 1 |  |  | Overexpression phenotype, Chemical-genetic profile ([2]; gene eptA, whether the literature phenotype was captured by the overexpression screen): Confirmed; Overexpression phenotype, Chemical-genetic profile ([2]; gene marA, whether the literature phenotype was captured by the overexpression screen): Confirmed
3 | RFRPPIRRPPIRPPFYPPFRPPIRPPIFPPIRPPFRPPLGPFP [BAC5, Bactenecin 5, antimicrobial peptide from bovine neutrophils; cluster C4] |  | 0.74 | 1.3 | 0.67 | 1 | 0.74 | 0.8 |  | 0.8 |  | Confirmed | 0.79 | Chemical-genetic score ([2]; overexpressed gene mlaD, read numbers in presence vs absence of AMP, sub-inhibitory dose doubling the doubling time, 12 generations, average of biological replicates): -2.101 log2 fold change; Average relative change in MIC (E. coli BW25113 ΔmlaD; mlaD deletion strain vs control E. coli BW25113, average of 3 replicates): 0.67; Relative MIC ([1]; overexpression strain yhbJ, MIC of overexpression strain / MIC of empty-plasmid control): 0.8; Relative MIC ([1]; overexpression strain yiaJ, MIC of overexpression strain / MIC of empty-plasmid control): 0.7
4 | RRRPRPPYLPRPRPPPFFPPRLPPRIPPGFPPRFPPRFP [PR39, PR-39, cathelicidin, source pig; cluster C4] | No9 |  | 1.32 |  |  |  |  | 0.8 |  | 0.8 | Confirmed | 0.78 | Effect of folA overexpression on susceptibility ([2]; gene folA (dihydrofolate reductase) overexpressed): resistance; Overexpression phenotype, Chemical-genetic profile ([2]; gene sbmA, whether the literature phenotype was captured by the overexpression screen): Confirmed; Relative MIC ([1]; overexpression strain cvpA, MIC of overexpression strain / MIC of empty-plasmid control): 0.8; Relative MIC ([1]; overexpression strain uhpC, MIC of overexpression strain / MIC of empty-plasmid control): 1.25
